Measured values published in ChEMBL document CHEMBL1201862, “PubChem BioAssay data set” (2004).
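The compound was tested at five concentrations on cells cultured in 96-well plates, with a 48-hour exposure period. GI50 is the concentration that inhibits growth by half.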 Activity calls are given as the source filed them. Cut-off read from the data, not from the text of the source: active = GI50 up to about 1.1 µM and inactive = higher.

How the values were obtained:
Assay in all cases: NCI tumour cell line growth inhibition, 48 h
A498 = test system: A498
COLO 205 = test system: COLO 205
DU-145 = test system: DU-145
HL-60 = test system: HL-60
HT-29 = test system: HT-29
IGROV-1 = test system: IGROV-1
K562 = test system: K562
LOX IMVI = test system: LOX IMVI
MDA-MB-231 = test system: MDA-MB-231
MDA-N = test system: MDA-N
MOLT-4 = test system: MOLT-4
NCI-H522 = test system: NCI-H522
PC-3 = test system: PC-3
RPMI-8226 = test system: RPMI-8226
SF-295 = test system: SF-295
SF-539 = test system: SF-539
SNB-19 = test system: SNB-19
UACC-257 = test system: UACC-257
UACC-62 = test system: UACC-62
M14 = test system: M14

Measured: GI50

CC(/C=N/N(C)C1=NCCCCN1)=N/N(C)C1=NCCCCN1
inactive: A498 97.9 µM | COLO 205 > 100 µM | DU-145 > 100 µM | HL-60 > 100 µM | HT-29 > 100 µM | IGROV-1 > 100 µM | K562 > 100 µM | LOX IMVI > 100 µM | MDA-MB-231 > 100 µM | MDA-N > 100 µM | MOLT-4 > 100 µM | NCI-H522 > 100 µM | PC-3 > 100 µM | RPMI-8226 > 100 µM | SF-295 > 100 µM | SF-539 > 100 µM | SNB-19 > 100 µM | UACC-257 > 100 µM | UACC-62 > 100 µM

CCCCCCCCCCCC(=O)OC[C@@H](C[As](=O)(O)O)OC(=O)CCCCCCCCCCC
inactive: A498 11.9 µM | COLO 205 17 µM | DU-145 18.1 µM | HL-60 2.95 µM | HT-29 9.82 µM | IGROV-1 1.85 µM | K562 5.75 µM | LOX IMVI 4.24 µM | M14 2.49 µM | MDA-MB-231 3.52 µM | MDA-N 4.29 µM | MOLT-4 5.51 µM | NCI-H522 2.47 µM | PC-3 2.43 µM | RPMI-8226 6.87 µM | SF-295 13.2 µM | SF-539 12.6 µM | SNB-19 3.07 µM | UACC-257 16.4 µM | UACC-62 2.52 µM

CCCCCCOc1ccc(C(=O)NOC)cc1
inactive: A498 99.1 µM | COLO 205 > 100 µM | DU-145 > 100 µM | HL-60 26.9 µM | HT-29 > 100 µM | IGROV-1 > 100 µM | K562 40.4 µM | LOX IMVI > 100 µM | M14 > 100 µM | MDA-MB-231 80.5 µM | MDA-N > 100 µM | MOLT-4 24.8 µM | NCI-H522 > 100 µM | PC-3 60.1 µM | RPMI-8226 36 µM | SF-295 > 100 µM | SF-539 > 100 µM | SNB-19 > 100 µM | UACC-257 > 100 µM | UACC-62 > 100 µM

COc1ccc2nc3cc([N+](=O)[O-])ccc3c(Nc3ccc(S(=O)(=O)NC(C)=O)cc3)c2c1
inactive: A498 > 100 µM | COLO 205 51.3 µM | DU-145 90.6 µM | HL-60 26.5 µM | HT-29 65 µM | K562 37.2 µM | LOX IMVI 93.3 µM | M14 > 100 µM | MDA-MB-231 50 µM | MDA-N > 100 µM | MOLT-4 29.4 µM | NCI-H522 33.2 µM | PC-3 45.5 µM | RPMI-8226 22.1 µM | SF-295 > 100 µM | SF-539 > 100 µM | SNB-19 > 100 µM | UACC-257 > 100 µM | UACC-62 73.3 µM

Nc1ccc2nc3n(c(=O)c2c1)CCCCC3
inactive: A498 > 100 µM | COLO 205 > 100 µM | DU-145 > 100 µM | HL-60 > 100 µM | HT-29 > 100 µM | IGROV-1 > 100 µM | K562 > 100 µM | LOX IMVI > 100 µM | M14 > 100 µM | MDA-MB-231 > 100 µM | MDA-N > 100 µM | MOLT-4 > 100 µM | NCI-H522 > 100 µM | PC-3 > 100 µM | RPMI-8226 > 100 µM | SF-295 > 100 µM | SF-539 > 100 µM | UACC-257 > 100 µM | UACC-62 > 100 µM

CC(=O)C1(O)CCC2(O)C3(O)CC=C4CC(O)CCC4(C)C3CC(OC(=O)c3ccc(O)cc3)C12C (configuration not stated)
inactive: A498 > 100 µM | COLO 205 > 100 µM | DU-145 > 100 µM | HL-60 > 100 µM | HT-29 > 100 µM | IGROV-1 > 100 µM | K562 27 µM | LOX IMVI > 100 µM | M14 > 100 µM | MDA-MB-231 > 100 µM | MDA-N > 100 µM | MOLT-4 46.2 µM | NCI-H522 > 100 µM | PC-3 > 100 µM | RPMI-8226 > 100 µM | SF-295 > 100 µM | SF-539 > 100 µM | SNB-19 > 100 µM | UACC-257 > 100 µM | UACC-62 75.2 µM

CC(=O)Nc1nc(C)c(S(=O)(=O)NC(=O)NC2NC(=O)NC2=O)s1 (configuration not stated)
inactive: A498 > 100 µM | COLO 205 > 100 µM | DU-145 > 100 µM | HL-60 > 100 µM | HT-29 > 100 µM | IGROV-1 > 100 µM | K562 > 100 µM | LOX IMVI > 100 µM | M14 > 100 µM | MDA-MB-231 > 100 µM | MDA-N > 100 µM | MOLT-4 > 100 µM | NCI-H522 > 100 µM | PC-3 > 100 µM | RPMI-8226 > 100 µM | SF-295 > 100 µM | SF-539 > 100 µM | SNB-19 > 100 µM | UACC-257 > 100 µM | UACC-62 > 100 µM
